Reference: US11447638B2, “Acetalanthraquinone derivatives useful for cellular staining” (BIOSTATUS LIMITED, priority 2016, dated 2022)

How the values were obtained:
[1] = test system: U-2 OS cells; test: Confocal laser scanning microscopy (CLSM) localisation analysis; format: cell-based, human; settings: 30 min incubation, Ex 637 nm, Em >665 nm, FIG. 4 and 5
Experimental: Confocal laser scanning microscopy (CLSM) was used to analyse the localisation of compounds BST-100, BST-101 and BST-106 with the U-2 OS cells, as it permitted the acquisition of volume limited optical sections through the cell and media. Excitation (637 nm) and emission (>665 nm) values for the probe analysis were the optimal conditions. The data sets obtained were processed and assembled into a single maximum projection image.
The patterns were analysed after 30 min incubation at different z depths and eliminating the solution background. The nucleus/cytoplasm ratio was calculated to quantify the localisation of the probe per cell.
A Radiance CLSM (BioRad Microscience) was used attached to an inverted Nikon microscope. Image acquisition was performed using excitation (637 nm) and emission (>665 nm) wavelengths. The histogram plot reports the nucleus/cytoplasm index to determine DNA binding in live cells. The calibration bar represents 10 μm.
The compounds BST-108, BST-109 were analysed in the same way.

[2] = Absorption and fluorescence spectra of compounds in PBS or HEPES; format: physicochemical; settings: for peak excitation wavelength: excitation wavelength used for fluorescence spectra of FIG. 1A/1B; for fluorescence emission, λ1 nm (Ex in HEPES) / fluorescence emission, λ1 nm (Ex in PBS): excited at absorption peak 1 (λ1); for fluorescence emission, λ1 nm (Ex in HEPES) / fluorescence emission, λ1 nm (Ex in PBS) / fluorescence emission, 540 nm (Ex in PBS): 20 μM; for fluorescence emission, 540 nm (Ex in PBS): excited at 540 nm
Experimental: The compounds were exited at 540 nm and at the wavelength of their absorption peak 1 (λ1 nm). The far-red fluorescent DNA dye DRAQ5 was used as reference.
Compounds were dissolved in DMSO (Sigma) to 20 mM stock concentration. DRAQ5 (Biostatus Ltd) was used as a control anthraquinone agent dissolved in deionised water. Working solutions were prepared in PBS (phosphate buffered saline; Sigma) or HEPES (4-(2-hydroxyethyl)-1-piperazineethanesulfonic acid; Sigma) at 20 or 40 μM. Probe solutions (20 μM), respectively in PBS or HEPES, were pipetted into a 1 mL quartz cuvette (Thermo Fisher Scientific). After obtaining baseline spectra in relevant buffer to zero the instrument, absorbance measurements were obtained using a Beckmann Coulter DU 800 UV/Visible spectrophotometer. The excitation wavelengths were scanned from 280 to 800 nm. Fluorescent spectral scans were performed using a Perkin Elmer LS-50B Luminescence spectrophotometer. To obtain emission scans, the excitation wavelength was set accordingly to the maximum values for each agent or another designated excitation wavelength that matches typical laser lines; and the emission wavelength were scanned from 400 nm to 900 nm in 1 nm increments. A Xenon flash lamp was used as the light source, with the lamp energy set to high. For each data point ten measurements were acquired with the photomultiplier tube sensitivity set at 125.
Compounds were excited at a wavelength corresponding to the first absorbance peak 1 (FIG. 1A and FIG. 1B show absorption (line) and fluorescence (dots) spectra of compounds; both are normalised to peak value.

[3] = test system: MCF7; test: MTT cellular viability (growth inhibition) assay, MCF7; format: cell-based; settings: Homo sapiens, 0.25-100 μM, 72 h, Table 3
Experimental: (§1) The viability of A549 or MCF7 in response to compounds was determined using the MTT (3-(4,5-dimethylthiazolyl-2-)-2, 5-diphenyltetrazolium bromide) assay according to the protocol set out in Mosmann T., Rapid colorimetric assay for cellular growth and survival: application to proliferation and cytotoxicity assays. Journal of immunological methods 1983; 65:55-63.
(§2) Initially, cells were seeded into a rounded-bottom 96 well plate (Corning) at six different cell seeding densities (0.5×104, 1×104, 2×104, 3×104, 4×104, and 5×104) per mL of R10 media (cells/mL) in order to optimise the assay and establish the most suitable seeding assay. Concentration of 1×10^4 cells/mL was determined to be the optimum seeding density for both cell lines for 96 h total incubation. A control lane contained supplemented R10 only. The 96 well plates were incubated overnight at 37° C., 5% CO2 and 100% humidity to allow cell adhesion. Cells were then treated respectively with novel AAQs (0.25-100 μM) or growth inhibition (IC50) of compounds of the invention was studied against MCF7 and A549 cancer cell lines. Compounds were tested with a concentration range between 0.25 and 100 μM for 72 h and doxorubicin, as positive cytotoxic control, was tested in parallel at the same doses.

[4] = test system: A549; test: MTT cellular viability (growth inhibition) assay, A549; format: cell-based; settings: Homo sapiens, 0.25-100 μM, 72 h, Table 3
Experimental: as §1, §2

[5] = test system: fixed human osteosarcoma U-2 OS cells; test: Labelling of fixed cells, wide-field fluorescence microscopy; format: cell-based; settings: 20 μM, 1 h exposure in PBS, FIG. 2
Experimental: Cells were seeded in a 24 well coverslip bottomed-plate, cultured overnight in McCoys media. 24 or 48 hours later the cells were washed gently with 3×2 mL PBS per well. The PBS was removed and 0.5 mL of 4% paraformaldehyde solution [a 4% paraformaldehyde solution in PBS was made fresh each time from a 16% stock solution (Thermo Fisher Scientific)] was added in each well and cells were incubated for 30 min. The paraformaldehyde was removed and cells were washed 3×2 mL PBS per well. 1 mL of PBS or HEPES was added to each well.
(§3) Before analysis, cells were incubated at 37° C. in the dark for the period designated. Samples were analysed directly without any further washing step. For live cell labelling cells were seeded, plated in a similar way, into a similar multi-well dish for optimal optical performance and could be used across all microscope platforms.
(§4) This basic protocol was the standard for testing the patterns of AAQ agents at 20 μM, compared to 20 μM of DRAQ5 as the benchmark reference (both in terms of cellular location and ability to detect the red fluorescence).
Low resolution wide-field fluorescence microscopy was used to evaluate cell labelling in fixed human osteosarcoma U-2 OS cells. The system was an Axiovert 100 microscope (Carl Zeiss, Welwyn Garden City, UK) ×10 0.3 NA air objective lens and an ORCA-ER CCD camera (Hamamatsu, Reading, UK). Illumination was controlled by a shutter in front of the transmission lamp. Image capture was controlled using Metamorph software. This evaluates the ability of the compounds to label cellular compartments without active uptake or efflux prohibiting delivery into the given cell. Image collection was performed after 1 h of exposure to probes in PBS. The calibration bar represents 50 μm.

[6] = test system: A549 live cells; test: Loading of A549 live cells, wide-field fluorescence microscopy; format: cell-based, human; settings: 20 μM, 30 min incubation, FIG. 3
Experimental: as §3, §4
Low resolution wide-field fluorescence microscopy was used to evaluate cell uptake and localisation of the probe compounds. The system was an Axiovert 100 microscope (Carl Zeiss, Welwyn Garden City, UK) ×10 0.3 NA air objective lens and an ORCA-ER CCD camera (Hamamatsu, Reading, UK). Illumination was controlled by a shutter in front of the transmission lamp. Image capture was controlled using Metamorph software. Human non-small cell lung cancer A549 cell line was used as the cell model to determine whether variation of the probe loading and localisation occurred in cell population sustaining a “side population” (SP) (Smith P J, Wiltshire M, Chappell S C, Cosentino L, Burns P A, Pors K, Errington R J. Kinetic analysis of intracellular Hoechst 33342—DNA interactions by flow cytometry: misinterpretation of side population status? Cytometry A 2013; 83:161-9) with a known capacity to efflux xenobiotic molecules, including the DNA dye Hoechst 33342.
Cells were incubated for 30 min with each compound and then images were collected at a 30 ms exposure time using low resolution wide-field fluorescence microscopy. Using an Axiovert 100 microscope (Carl Zeiss, Welwyn Garden City, UK) ×10 0.3 NA air objective lens and an ORCA-ER CCD camera (Hamamatsu, Reading, UK). Illumination was controlled by a shutter in front of the transmission lamp. Image capture was controlled using Metamorph software. The calibration bar represents 50 μm.

[7] = test system: A549 cells; test: Flow cytometry analysis of cell uptake before/after hydrolysis; format: cell-based, human; settings: 20 μM, 30 min; for % ile (25): low loader cell population
Experimental: Flow cytometry analysis was performed to evaluate the effect of pre-treatment with HCl to generate an active aldehyde on the cell uptake properties. A549 cells were incubated for 30 min with compounds of Formula (I) and its hydrolysed forms (20 μM) prior to analysis. The rate of uptake was tested in A549 cell culture media and in Aldefluor buffer, containing the MDR-blocker verapamil (Pearce and Bonnet 2007), to evaluate the effect in uptake with/without the Aldefluor assay system. Analysis was conducted in the viable subset of cells, corresponding to ˜95% of the total amount under investigation.
Aldefluor buffer contained verapamil vs. cell media. The cells were incubated with 20 μM of the respective AAQ/HAAQs (30 min) before analysis
Statistical analysis of A549 uptake before/after hydrolysis was also studied. Experiments were performed in cell media versus Aldefluor buffer. Data were processed using FlowJo software (Tree Star). DRAQ5 was used to set the dynamic range and as control dye and empty cells were used to determine auto-fluorescence.

[8] = solution: Aldefluor buffer with verapamil

SMILES | peak excitation wavelength [2] [nm] | fluorescence emission, λ1 nm (Ex in HEPES) [2] [nm] | fluorescence emission, λ1 nm (Ex in PBS) [2] [nm] | IC50 [3] [µM] | IC50 [4] [µM] | fluorescence emission, 540 nm (Ex in PBS) [2] [nm] | also measured
COC(CCCCNc1ccc(NCCCCC(OC)OC)c2c1C(=O)c1c(O)ccc(O)c1C2=O)OC [BST-100, 1,4-Bis(5,5-dimethoxypentylamino)-5,8-dihydroxyanthracene-9,10-dione] | 584 | 740 | 747.5 |  |  |  | subcellular localisation by CLSM [1]: low levels of probe in the perinuclear region, with probable overload in Golgi body and large vesicles
COC(CNC(=O)CCNc1ccc(NCCC(=O)NCC(OC)OC)c2c1C(=O)c1ccccc1C2=O)OC [BST-102, 3,3′-(9,10-Dioxo-9,10-dihydroanthracene-1,4-diyl)bis(azanediyl)bis(N-(2,2-dimethoxyethyl)propanamide)] | 585 | 663 | 661 | 1.75 | > 100 | 670 | 
COC(CNC(=O)CCNc1ccc(NCCC(=O)NCC(OC)OC)c2c1C(=O)c1c(O)ccc(O)c1C2=O)OC [BST-104, 3,3′-(5,8-dihydroxy-9,10-dioxo-9,10-dihydroanthracene-1,4diyl)bis(azanediyl)bis(N-(2,2-dimethoxyethyl)propanamide)] |  | 726 | 684 |  |  | 712 | 
COC(CCCCNc1ccc(NCCN(C)C)c2c1C(=O)c1ccccc1C2=O)OC [BST-106, 1-(5,5-Dimethoxypentylamino)-4-(2-(dimethylamino)ethylamino) anthracene-9,10-dione] | 584 | 664 | 660 | 11.3 | 11.7 | 670 | subcellular localisation by CLSM [1]: additional nuclear signal; fluorescence brightness / background in fixed cells [5]: very bright background; staining pattern in fixed cells [5]: diffuse cytoplasmic staining, with some perinuclear and nucleoli labelling; fluorescence brightness / background in live cells [6]: high background; staining pattern in live cells [6]: heterogeneous cytoplasmic staining; Median (fluorescence, uptake) [7, 8]: 96.13; % ile (25) [7, 8]: 81.66; Median (fluorescence, uptake) ([7]; solution: media): 101.48; % ile (25) ([7]; solution: media): 84.64
CN(C)CCNc1ccc(O)c2c1C(=O)c1c(O)ccc(NCCN(C)C)c1C2=O [DRAQ5, reference compound] |  | >665 | >665 |  |  | 635 | Median (fluorescence, uptake) ([7]; solution: media): 217.4; % ile (25) ([7]; solution: media): 191.27

Further lines, with some results ahead:

peak excitation wavelength [2] [nm] | fluorescence emission, λ1 nm (Ex in HEPES) [2] [nm] | fluorescence emission, λ1 nm (Ex in PBS) [2] [nm] | IC50 [3] [µM] | IC50 [4] [µM] | fluorescence emission, 540 nm (Ex in PBS) [2] [nm] | SMILES | also measured
 |  |  | 1.66 | 17.5 |  | COC(CCCCNc1ccc(NCCN(C)C)c2c1C(=O)c1c(O)ccc(O)c1C2=O)OC [BST-107, 1-(5,5-Dimethoxypentylamino)-4-(2-(dimethylamino)ethylamino)-5,8-dihydroxyanthracene-9,10-dione] | 
 | 684 | 690.5 |  |  | 684 | COC(CN(C)CCNc1ccc(NCCN(C)CC(OC)OC)c2c1C(=O)c1c(O)ccc(O)c1C2=O)OC [BST-201, 1,4-bis((2-((2,2-dimethoxyethyl)(methyl)amino)ethyl)amino)-5,8-dihydroxyanthracene-9,10-dione] | staining pattern in live cells [6]: perinuclear accumulation
 | 680 |  |  |  |  | COC(CN(CCNc1ccc(NCCN(Cc2ccccc2)CC(OC)OC)c2c1C(=O)c1c(O)ccc(O)c1C2=O)Cc1ccccc1)OC [BST-202, 1,4-bis((2-(benzyl(2,2-dimethoxyethyl)amino)ethyl)amino)-5,8-dihydroxyanthracene-9,10-dione] | 
 |  |  | 0.028 | 0.05 |  | COc1cccc2c1C(=O)c1c(O)c3c(c(O)c1C2=O)C[C@@](O)(C(=O)CO)C[C@@H]3O[C@H]1C[C@H](N)[C@H](O)[C@H](C)O1 [Doxorubicin, doxorubicin, reference compound] | 
